Key:
Pharmacokinetics in rat = settings: in vivo
Excerpt: (§1) In vivo data for (5R,6S)-6-[(1R)-hydroxy ethyl]-2-[4-(1-pyridinio)methylphenyl]oxymethylpenem-3-carboxylate (example 1, Compound 5,FCE 24386)

[1] = Pharmacokinetics in mouse; settings: in vivo
Excerpt: as §1

[2] = system: Staphilococcus aureus Smith; experiment: Experimental infection in mice, Staphilococcus aureus Smith; assay type: in vivo, Staphilococcus aureus Smith (infected mice); settings: Mus musculus, intraperitoneal infection, 3 × LD50 challenge, treatments at 30, 90 and 360 minutes after infection
Protocol: (§2) ^1 Intraperitoneal infection in mice with a 3 × LD50
(§3) challenge; treatments at 30, 90 and 360 minutes after infection.

Escherichia coli G II = experiment: Experimental infection in mice, Escherichia coli G II; assay type: in vivo, Escherichia coli G II (infected mice); settings: intraperitoneal infection, 3 × LD50 challenge, treatments at 30, 90 and 360 minutes after infection
Protocol: as §2, §3

Structure (SMILES): C[C@@H](O)[C@H]1C(=O)N2C(C(=O)[O-])=C(COc3ccc(C[n+]4ccccc4)cc3)S[C@H]12 [Compound 5, (5R,6S)-6-[(1R)-hydroxyethyl]-2-[4-(1-pyridinio)methylphenyl]oxymethylpenem-3-carboxylate]
- AUC (Pharmacokinetics in rat): 103000 ng·h/mL
- half-life (Pharmacokinetics in rat; read-out: t 1/2β): 28 min
- Fa ([1]; sc, Mouse, s.c., read-out: % Absorption s.c.): 100%
- AUC ([1]; mouse): 56000 ng·h/mL
- half-life ([1]; mouse, read-out: t 1/2β): 27 min
- ED50 [2]: < 0.032 mg/kg
- ED50 (Escherichia coli G II): 1.55 mg/kg

— US4886793A, “Penem derivatives” (Farmitalia Carlo Erba, S.r.l., priority 1986, dated 1989)
